Patent US6469027B1, “N-methyl-D-aspartate (NMDA) receptor blockers for the prevention of atherosclerosis” (The Board of Regents of the University of Nebraska, priority 1996, dated 2002)

How the values were obtained:
N-VSMC [1] = assay: Cell proliferation (cell number) of N-VSMC cultures; format: cell-based, chicken; conditions: 0.01 to 100 μM for 36 h
N-VSMC [2] = assay: [3H]thymidine incorporation (DNA synthesis) in N-VSMC cultures; format: cell-based, chicken
Method: FIG. 1 is a graph illustrating homocysteine's effects on the growth of VSMC cultures. Confluent N-VSMC cultures were growth arrested by incubating cells with M199 medium containing 1 μg/ml BSA for 48 h, exposed to various concentrations of H[cys] (0.01-4000μM) for 30 h, pulse labeled for 6 h with 2 μCi/ml [^3H]-thymidine, and cell monolayers were washed twice with cold (0° C.) 10% trichloroacetic acid (TCA). The amount of [^3H]-thymidine incorporation was determined by scintillation spectrophotometry. Results are shown as the means of ±S.D.
FIGS. 2A-2C are graphs illustrating the effects of glutamate, homocysteic acid and NMDA on DNA synthesis in N-VSMC. N-VSMC were cultured and serum-deprived as described in “Experimental Procedures.” Cultures were treated with various concentrations of homocysteic acid (2A), NMDA (2B), or L-glutamate (2C) for 30 and pulsed 6h with [^3H] thymidine. All values are expressed as ±S.D. of six independent experiments completed in quadruplicate.
(§1) Smooth Muscle Culture: The thoracic (N) and abdominal (M) aorta of normal 16 and 18-day embryos were cleaned of fat, and the intima-media was isolated from the adventitia. The intima-media was enzymatically dispersed into a single cell suspensions by a combination of collagenase and elastase followed by trypsin. VSMC were placed in primary culture at a constant density of 2×10^4 cells/cm^2 in multiwell plates or 100 mm culture plates in Medium 199 supplemented with 10% fetal bovine serum (FMS) and 2 mM glutamine, in an atmosphere of 95% air: 5% Co2 at 37° C. Primary cultures were grown for 7 days before they were seeded into first passage at the same cell density and grown to confluence. Experiments were carried out between passages 3-6. Experimental conditions for all cells included 48 h in Medium 199 supplemented with 1% FBS prior to initiating and experiment.
(§2) DNA Synthesis: Growth factors were added directly to quiescent VSMCs in Medium 199 as described above. The cells were pulsed between 4-6 h with a final concentration of 2-5 μCi/ml [^3H]thymidine added at the times and for the periods indicated in the figure legends. The cells were washed, and the incorporation of [^3H]thymidine into acid insoluble material was determined as previously described. Den-Heijer, M. et al. (1996), Hyperhomocystinemia as a risk factor for deep-vein thrombosis. N. Eng. J. Med. 334(12):759-762.

[3] = system: VSMC isolated from abdominal; assay: [3H]thymidine incorporation (DNA synthesis) in abdominal aorta VSMC; format: cell-based, chicken; conditions: abdominal VSMC compared with N-VSMC
Description: as §1, §2

[4] = system: human aortic smooth muscle cells; assay: 3H thymidine uptake in human aortic smooth muscle cells; format: cell-based
Method: FIG. 13 is a graph illustrating 3 H thymidine uptake of human aortic smooth muscle cells in response to differing concentrations of Hcy.
Smooth muscle cell cultures were established from samples of thoracic aorta obtained during organ transplantation. Confluent early passage cells were growth arrested by serum starvation, then they were treated with Hcy in serum free (defined) medium.

rat liver cells = conditions: cited from earlier work
[5] = system: Rabbit aortic smooth muscle cells; assay: Calcium uptake in rabbit aortic smooth muscle cells; format: cell-based; conditions: 10μM for 40 seconds
Method: For each of the following experiments, aortic smooth muscle cells were obtained from 2-3 lb. New Zealand rabbits; these cells were cultured as described above, and evaluated for their responses to Hcy. […] This response is similar to that of the embryonic cells (see above).

diacylglycerol = assay: sn-1,2-Diacylglycerol assay in VSMC; format: cell-based, chicken
Method: (§3) FIGS. 7A-7C are graphs illustrating the effect of H[cys] on diacylglycerol content in N-VSMC. (A) Time course of changes of membrane diacylglycerol content cell treated with 100μM H[cys] for the various times. Cells were recovered, membrane lipids extracted and diacylglycerol amounts determined as described in Methods. Results are expressed as the mean ± standard error of quadruplicate incubations from six independent experiments. (B) Effects of varying concentrations of H[cys] on diacylglycerol synthesis. Cells were treated for 30 min with different concentrations of H[cys] and membrane lipids were isolated and the diacylglycerol content determined. (C) Effect of PKC inhibitors on H[cys] mediated cell proliferation. N-VSMC cultures were grown in 1% FBS and 100 μM H[cys] in the presence and absence of staurosporine and cheleyrithrine chloride for the times (days-d) indicated. Cells were counted in quadruplicate in a Coulter counter every three days. Values represent the mean ±S.D. from four independent experiments.
.sn-1,2-Diacylglycerol assay: VSMC were treated with 0.01 to 100 μM H[cys] for 15-60 min. Cells were harvested and lipids were extracted by the method of Priess et al., (18). The analysis of diacylglycerol synthesis was as described previously by Wrenn et al. Wrenn, R. W. et al. (1993). […]

N-VSMC [6] = assay: Cell proliferation (cell number) of N-VSMC cultures; format: cell-based, chicken; conditions: 100 μM H[cys]; between day 6 and 10; 1% serum
Method: FIGS. 5A and 5B are graphs illustrating cell growth and DNA synthesis of N-VSMC cultures. (A) Cells were cultured in M199 supplemented with 1% FBS in the presence and absence of 100 μM H[cys]. The medium was renewed every three days and cell numbers were determined by Coulter counter or emocytometer. Each point represents the mean of quadruplicate samples counted six times. (B) Cells were grown to confluency, growth arrested in M199 and 1 μg/ml of bovine serum albumin for two days. Cultures were exposed to various concentrations of H[cys] (0.01-1000 μM) for 30 h, pulse labeled for 6 h with 2 μCi/ml of [^3H]thymidine. The amount of [^3H]thymidine incorporation was determined by scintillation spectrophotometry. Results are shown as the mean of ±S.E.M.
as §3, §1

N[C@@H](CCS)C(=O)O [homocysteine]
cell number in the absence of serum (N-VSMC [1]): no increase in cell number | DNA synthesis increased (N-VSMC [2]; N-VSMC incubated with 0.01 to 4000 μM homocysteine, dose dependent and saturable): 12 fold | DNA synthesis at high concentration (N-VSMC [2]; homocysteine concentrations above 300 μM): completely suppressed | DNA synthesis increased (N-VSMC [2]; neural crest derived smooth muscle cells): 5 fold | effect on DNA synthesis [3]: did not respond similarly | effect on DNA synthesis ([4]; human cell cultures of N-VSMC (data not shown)): observed | uptake of 3H thymidine ([4]; thoracic aorta cells, serum free medium): significant, dose-responsive increase | protein bound H[cys] in the microsomal fraction (rat liver cells): 50% | calcium flux [5]: significant calcium flux | concentration at which increase in DAG membrane levels was first evident (diacylglycerol; 30 min): 3 µM | increase in DAG production (diacylglycerol; treated for 15-60 min): 3 fold | cell number increased (N-VSMC [6]): 9 fold
